Results published in article PMC5218480 (PLoS ONE, 2017).

Tested on: MV-4-11 cells
Assay: Gene expression microarray analysis (Affymetrix PrimeView) and GSEA
Format: cell-based, human
Set-up: RFU PODN (11730768_x_at) / Fold change /veh PODN (11730768_x_at) / RFU LINC00158 (11744669_a_at) / Fold change /veh LINC00158 (11744669_a_at) / RFU DUSP10 (11751237_a_at) / Fold change /veh DUSP10 (11751237_a_at) / RFU ID3 (11757404_x_at) / Fold change /veh ID3 (11757404_x_at) / RFU PLEKHG5 (11737974_s_at) / Fold change /veh PLEKHG5 (11737974_s_at) / RFU LRRC4B (11730491_at) / Fold change /veh LRRC4B (11730491_at) / RFU GIMAP4 (11747438_a_at) / Fold change /veh GIMAP4 (11747438_a_at) / RFU KRT8 (11758183_x_at) / Fold change /veh KRT8 (11758183_x_at) / RFU CNN1 (11734310_a_at) / Fold change /veh CNN1 (11734310_a_at) / RFU VPS37D (11726825_at) / Fold change /veh VPS37D (11726825_at) / RFU C10orf10 (11716522_x_at) / Fold change /veh C10orf10 (11716522_x_at) / RFU KIR2DL2 /// KIR2DL4 /// KIR2DL5A /// KIR2DL5B /// KIR2DS1 /// KIR2DS2 /// KIR2DS3 /// KIR2DS4 /// KIR3DL3 /// KIR3DL3 /// KIR3DS1 (11738374_at) / Fold change /veh KIR2DL2 /// KIR2DL4 /// KIR2DL5A /// KIR2DL5B /// KIR2DS1 /// KIR2DS2 /// KIR2DS3 /// KIR2DS4 /// KIR3DL3 /// KIR3DL3 /// KIR3DS1 (11738374_at) / RFU C1QL1 (11718748_at) / Fold change /veh C1QL1 (11718748_at) / RFU TMPRSS4 (11747572_a_at) / Fold change /veh TMPRSS4 (11747572_a_at) / RFU HAMP (11756126_x_at) / Fold change /veh HAMP (11756126_x_at) / RFU RNFT2 (11725882_a_at) / Fold change /veh RNFT2 (11725882_a_at) / RFU NR4A2 (11747474_a_at) / Fold change /veh NR4A2 (11747474_a_at) / RFU ABCC12 (11746883_a_at) / Fold change /veh ABCC12 (11746883_a_at) / RFU TMEM136 (11760407_x_at) / Fold change /veh TMEM136 (11760407_x_at) / RFU CLDN22 /// WWC2 (11732394_at) / Fold change /veh CLDN22 /// WWC2 (11732394_at) / RFU HLA-DPB1 (11760878_x_at) / Fold change /veh HLA-DPB1 (11760878_x_at) / RFU SPINT1 (11716480_a_at) / Fold change /veh SPINT1 (11716480_a_at) / RFU GAP43 (11754022_s_at) / Fold change /veh GAP43 (11754022_s_at) / RFU A4GNT (11735810_at) / Fold change /veh A4GNT (11735810_at) / RFU PRB3 (11715151_x_at) / Fold change /veh PRB3 (11715151_x_at) / RFU TUBB4B (11761932_at) / Fold change /veh TUBB4B (11761932_at) / RFU CAPN14 (11732068_a_at) / Fold change /veh CAPN14 (11732068_a_at) / RFU TMCC2 (11721928_a_at) / Fold change /veh TMCC2 (11721928_a_at) / RFU IRGQ (11745062_a_at) / Fold change /veh IRGQ (11745062_a_at) / RFU FAM174B (11720279_a_at) / Fold change /veh FAM174B (11720279_a_at) / RFU TMPRSS4 (11748680_a_at) / Fold change /veh TMPRSS4 (11748680_a_at) / RFU FAM212B (11763350_a_at) / Fold change /veh FAM212B (11763350_a_at) / RFU PLEKHG5 (11743358_a_at) / Fold change /veh PLEKHG5 (11743358_a_at) / RFU ZSCAN30 (11745921_a_at) / Fold change /veh ZSCAN30 (11745921_a_at) / RFU CMKLR1 (11741424_a_at) / Fold change /veh CMKLR1 (11741424_a_at) / RFU LOC101060620 /// MAPK8IP1 (11723275_at) / Fold change /veh LOC101060620 /// MAPK8IP1 (11723275_at) / RFU SPTSSB (11747773_x_at) / Fold change /veh SPTSSB (11747773_x_at) / RFU PRSS12 (11739890_at) / Fold change /veh PRSS12 (11739890_at) / RFU BIN1 (11741810_x_at) / Fold change /veh BIN1 (11741810_x_at) / RFU WNT11 (11732464_a_at) / Fold change /veh WNT11 (11732464_a_at) / RFU C10orf10 (11716521_a_at) / Fold change /veh C10orf10 (11716521_a_at) / RFU C5orf56 (11738089_at) / Fold change /veh C5orf56 (11738089_at) / RFU CYB561 (11721691_x_at) / Fold change /veh CYB561 (11721691_x_at) / RFU ANKRD19P (11752326_a_at) / Fold change /veh ANKRD19P (11752326_a_at) / RFU OR2T12 /// OR2T33 /// OR2T8 (11738714_s_at) / Fold change /veh OR2T12 /// OR2T33 /// OR2T8 (11738714_s_at) / RFU VCAN (11748164_a_at) / Fold change /veh VCAN (11748164_a_at) / RFU JSRP1 (11732532_at) / Fold change /veh JSRP1 (11732532_at) / RFU KRTAP10-11 (11738290_x_at) / Fold change /veh KRTAP10-11 (11738290_x_at) / RFU MYO3A (11730013_a_at) / Fold change /veh MYO3A (11730013_a_at) / RFU EBF3 (11725865_a_at) / Fold change /veh EBF3 (11725865_a_at) / RFU CAMK2N1 (11719241_x_at) / Fold change /veh CAMK2N1 (11719241_x_at) / RFU C5orf56 (11738088_a_at) / Fold change /veh C5orf56 (11738088_a_at) / RFU OLFML3 (11715873_a_at) / Fold change /veh OLFML3 (11715873_a_at) / RFU LOC100653217 /// NTM (11731650_a_at) / Fold change /veh LOC100653217 /// NTM (11731650_a_at) / RFU MAPK11 (11762145_a_at) / Fold change /veh MAPK11 (11762145_a_at) / RFU FIZ1 (11724087_x_at) / Fold change /veh FIZ1 (11724087_x_at) / RFU OASL (11726364_x_at) / Fold change /veh OASL (11726364_x_at) / RFU SOX15 (11748057_x_at) / Fold change /veh SOX15 (11748057_x_at) / RFU CD79A (11719716_a_at) / Fold change /veh CD79A (11719716_a_at) / RFU HIST1H1D (11736915_at) / Fold change /veh HIST1H1D (11736915_at) / RFU CASKIN2 (11723855_a_at) / Fold change /veh CASKIN2 (11723855_a_at) / RFU LOC730098 (11760151_x_at) / Fold change /veh LOC730098 (11760151_x_at) / RFU OR4N2 (11742367_at) / Fold change /veh OR4N2 (11742367_at) / RFU PRRT2 (11749266_a_at) / Fold change /veh PRRT2 (11749266_a_at) / RFU SNX32 (11753110_a_at) / Fold change /veh SNX32 (11753110_a_at) / RFU CDHR5 (11726645_a_at) / Fold change /veh CDHR5 (11726645_a_at) / RFU RCAN1 (11760418_a_at) / Fold change /veh RCAN1 (11760418_a_at) / RFU FAM167A (11723789_a_at) / Fold change /veh FAM167A (11723789_a_at) / RFU FAM26E (11764081_at) / Fold change /veh FAM26E (11764081_at) / RFU ISYNA1 (11749810_s_at) / Fold change /veh ISYNA1 (11749810_s_at) / RFU ACY1 (11761880_at) / Fold change /veh ACY1 (11761880_at) / RFU 11764098_at / Fold change /veh 11764098_at / RFU SAMD14 (11745864_x_at) / Fold change /veh SAMD14 (11745864_x_at) / RFU NPB (11741838_a_at) / Fold change /veh NPB (11741838_a_at) / RFU TMPRSS6 (11731388_a_at) / Fold change /veh TMPRSS6 (11731388_a_at) / RFU KRTAP10-2 (11738614_at) / Fold change /veh KRTAP10-2 (11738614_at) / RFU ARHGAP8 /// PRR5-ARHGAP8 (11727945_x_at) / Fold change /veh ARHGAP8 /// PRR5-ARHGAP8 (11727945_x_at) / RFU KRTAP5-7 /// NADSYN1 (11734609_at) / Fold change /veh KRTAP5-7 /// NADSYN1 (11734609_at) / RFU RASL12 (11751679_a_at) / Fold change /veh RASL12 (11751679_a_at) / RFU CDKN2B (11736163_a_at) / Fold change /veh CDKN2B (11736163_a_at) / RFU PRF1 (11729649_at) / Fold change /veh PRF1 (11729649_at) / RFU, ZNF638 /// ZNF638-IT1 / Fold change vs veh, ZNF638 /// ZNF638-IT1 / RFU, PANK3 / Fold change vs veh, PANK3 / RFU, SH3YL1 / Fold change vs veh, SH3YL1 / RFU, ZEB2 / Fold change vs veh, ZEB2 / RFU, NRIP1 / Fold change vs veh, NRIP1 / RFU, PTTG1IP / Fold change vs veh, PTTG1IP / RFU, CAPN2 / Fold change vs veh, CAPN2 / RFU, MED14 / Fold change vs veh, MED14 / RFU, SNORA58 / Fold change vs veh, SNORA58 / RFU, C1orf63 / Fold change vs veh, C1orf63 / RFU, LRRFIP1 / Fold change vs veh, LRRFIP1 / RFU, NDUFAF7 / Fold change vs veh, NDUFAF7 / RFU, SLC12A2 / Fold change vs veh, SLC12A2 / RFU, IBTK / Fold change vs veh, IBTK / RFU, ESF1 / Fold change vs veh, ESF1 / Fold change vs veh, TMEM50B / RFU, TAOK1 / Fold change vs veh, TAOK1 / RFU, ACBD3 / Fold change vs veh, ACBD3 / RFU, TMA16 / Fold change vs veh, TMA16 / RFU, RWDD3 / Fold change vs veh, RWDD3 / RFU, BCAT1 / Fold change vs veh, BCAT1 / RFU, EDEM3 / Fold change vs veh, EDEM3 / RFU, TMEM33 / Fold change vs veh, TMEM33 / RFU, WDR75 / Fold change vs veh, WDR75 / RFU, AHCTF1 / Fold change vs veh, AHCTF1 / RFU, TFRC / Fold change vs veh, TFRC / RFU, ZDHHC17 / Fold change vs veh, ZDHHC17 / RFU, NOM1 / Fold change vs veh, NOM1 / RFU, ARL8B / Fold change vs veh, ARL8B / RFU, ZBTB11 / Fold change vs veh, ZBTB11 / RFU, TAMM41 / Fold change vs veh, TAMM41 / RFU, KIAA1704 /// LOC100996395 / Fold change vs veh, KIAA1704 /// LOC100996395 / RFU, ING1 / Fold change vs veh, ING1 / RFU, TRMT61B / Fold change vs veh, TRMT61B / RFU, FUBP3 / Fold change vs veh, FUBP3 / RFU, TP53 / Fold change vs veh, TP53 / RFU, TNKS2 / Fold change vs veh, TNKS2 / RFU, ZFP14 / Fold change vs veh, ZFP14 / RFU, ACTR2 / Fold change vs veh, ACTR2 / RFU, PPP3R1 / Fold change vs veh, PPP3R1 / RFU, PIK3R1 / Fold change vs veh, PIK3R1 / RFU, HNRNPA1 / Fold change vs veh, HNRNPA1 / RFU, RNF170 / Fold change vs veh, RNF170 / RFU, ZNF28 / Fold change vs veh, ZNF28 / RFU, RNGTT / Fold change vs veh, RNGTT / RFU, OGT / Fold change vs veh, OGT / RFU, BRD1 / Fold change vs veh, BRD1 / RFU, MARS / Fold change vs veh, MARS / RFU, ZNF655 / Fold change vs veh, ZNF655 / RFU, FAHD1 / Fold change vs veh, FAHD1 / RFU, BDP1 / Fold change vs veh, BDP1 / RFU, LRRCC1 / Fold change vs veh, LRRCC1 / RFU, ARID1A / Fold change vs veh, ARID1A / RFU, ZNF146 / Fold change vs veh, ZNF146 / RFU, ZNF330 / Fold change vs veh, ZNF330 / RFU, GPN3 / Fold change vs veh, GPN3 / RFU, C9orf123 / Fold change vs veh, C9orf123 / RFU, N4BP2L2 / Fold change vs veh, N4BP2L2 / RFU, ARFIP1 / Fold change vs veh, ARFIP1 / RFU, FAM179B / Fold change vs veh, FAM179B / RFU, BCL10 / Fold change vs veh, BCL10 / RFU, UHRF1BP1L / Fold change vs veh, UHRF1BP1L / RFU, BET1 / Fold change vs veh, BET1 / RFU, CNOT2 / Fold change vs veh, CNOT2 / RFU, ZNF268 / Fold change vs veh, ZNF268 / Fold change vs veh, ZNF507 / RFU, DGCR2 / Fold change vs veh, DGCR2 / RFU, WDSUB1 / Fold change vs veh, WDSUB1 / Fold change vs veh, HSP90B1 /// MIR3652 / RFU, ADSS / Fold change vs veh, ADSS / RFU, GK / Fold change vs veh, GK / RFU, ZNF148 / Fold change vs veh, ZNF148 / RFU, TAF9 / Fold change vs veh, TAF9 / RFU, SLC1A5 / Fold change vs veh, SLC1A5 / RFU, SLMO2 / Fold change vs veh, SLMO2 / RFU, ABCC4 / Fold change vs veh, ABCC4 / RFU, LOC101060439 /// RAP1B / Fold change vs veh, LOC101060439 /// RAP1B / RFU, RFX7 / Fold change vs veh, RFX7 / RFU, GTPBP10 / Fold change vs veh, GTPBP10 / RFU, CNEP1R1 / Fold change vs veh, CNEP1R1 / RFU, BIVM-ERCC5 /// ERCC5 / Fold change vs veh, BIVM-ERCC5 /// ERCC5 / RFU, ILF3 / Fold change vs veh, ILF3 / RFU 11762660_at / Fold change /veh 11762660_at / RFU VCAN (11757783_s_at) / Fold change /veh VCAN (11757783_s_at) / RFU DDX43 (11728927_at) / Fold change /veh DDX43 (11728927_at) / RFU KRT8 (11758188_x_at) / Fold change /veh KRT8 (11758188_x_at) / RFU NKD1 (11759106_at) / Fold change /veh NKD1 (11759106_at) / RFU SRD5A1 (11742802_a_at) / Fold change /veh SRD5A1 (11742802_a_at) / RFU TPSAB1 /// TPSB2 (11721975_s_at) / Fold change /veh TPSAB1 /// TPSB2 (11721975_s_at) / RFU GSTM3 (11746129_a_at) / Fold change /veh GSTM3 (11746129_a_at) / RFU IL23R (11737362_x_at) / Fold change /veh IL23R (11737362_x_at) / RFU TMEM51 (11727254_a_at) / Fold change /veh TMEM51 (11727254_a_at) / RFU PIWIL2 (11732686_x_at) / Fold change /veh PIWIL2 (11732686_x_at) / RFU ORM1 (11744905_x_at) / Fold change /veh ORM1 (11744905_x_at) / RFU CCDC152 (11743942_at) / Fold change /veh CCDC152 (11743942_at) / RFU ECM1 (11717891_a_at) / Fold change /veh ECM1 (11717891_a_at) / RFU IL23R (11748794_a_at) / Fold change /veh IL23R (11748794_a_at) / RFU TNFAIP8L3 (11732012_x_at) / Fold change /veh TNFAIP8L3 (11732012_x_at) / RFU MBOAT4 (11741988_at) / Fold change /veh MBOAT4 (11741988_at) / RFU 11764193_at / Fold change /veh 11764193_at / RFU TMEM53 (11763286_at) / Fold change /veh TMEM53 (11763286_at) / RFU MAGEB2 (11727129_at) / Fold change /veh MAGEB2 (11727129_at) / RFU TMEM200A (11744735_a_at) / Fold change /veh TMEM200A (11744735_a_at) / RFU CCDC152 (11751479_a_at) / Fold change /veh CCDC152 (11751479_a_at) / RFU FAM211A (11726209_a_at) / Fold change /veh FAM211A (11726209_a_at) / RFU RGS16 (11746705_a_at) / Fold change /veh RGS16 (11746705_a_at) / RFU VCAN (11755009_s_at) / Fold change /veh VCAN (11755009_s_at) / RFU RHOB (11743442_s_at) / Fold change /veh RHOB (11743442_s_at) / RFU RGS16 (11720943_a_at) / Fold change /veh RGS16 (11720943_a_at) / RFU RGS16 (11720944_at) / Fold change /veh RGS16 (11720944_at) / RFU, VPS4B / Fold change vs veh, VPS4B / RFU, CREB1 / Fold change vs veh, CREB1 / RFU, DNAJC13 / Fold change vs veh, DNAJC13 / RFU, GNAQ / Fold change vs veh, GNAQ / RFU, CDK5R1 / Fold change vs veh, CDK5R1 / RFU, ZRANB3 / Fold change vs veh, ZRANB3 / RFU, CUL4A / Fold change vs veh, CUL4A / RFU, CCNY / Fold change vs veh, CCNY / RFU, UFL1 / Fold change vs veh, UFL1 / RFU, COG3 / Fold change vs veh, COG3 / RFU, DIAPH2 / Fold change vs veh, DIAPH2 / RFU, SKA2 / Fold change vs veh, SKA2 / RFU, AFF3 / Fold change vs veh, AFF3 / RFU, LMF1 / Fold change vs veh, LMF1 / RFU, IPO11 / Fold change vs veh, IPO11 / RFU, DFFB / Fold change vs veh, DFFB / RFU, FOXP1 / Fold change vs veh, FOXP1 / RFU, CARD8 / Fold change vs veh, CARD8 / RFU, STRN3 / Fold change vs veh, STRN3 / RFU, ADK / Fold change vs veh, ADK / RFU, RASSF2 / Fold change vs veh, RASSF2 / RFU, WIPF1 / Fold change vs veh, WIPF1 / RFU, LARP1B / Fold change vs veh, LARP1B / RFU, RASA1 / Fold change vs veh, RASA1 / RFU, RB1 / Fold change vs veh, RB1 / RFU, PPFIA1 / Fold change vs veh, PPFIA1 / RFU, MAT2A / Fold change vs veh, MAT2A / RFU, CCT5 / Fold change vs veh, CCT5 / RFU, WDR92 / Fold change vs veh, WDR92 / RFU, CUX1 / Fold change vs veh, CUX1 / RFU, TTC7A / Fold change vs veh, TTC7A / RFU, TMEM135 / Fold change vs veh, TMEM135 / RFU, DEPTOR / Fold change vs veh, DEPTOR / RFU, CPM / Fold change vs veh, CPM / RFU, DNAJB6 / Fold change vs veh, DNAJB6 / RFU, CACNA2D3 / Fold change vs veh, CACNA2D3 / RFU, DTX4 / Fold change vs veh, DTX4 / RFU, TFCP2 / Fold change vs veh, TFCP2 / RFU, GMCL1 /// GMCL1P1 / Fold change vs veh, GMCL1 /// GMCL1P1 / RFU, AEBP2 / Fold change vs veh, AEBP2 / RFU, SNHG1 /// SNORD22 /// SNORD25 /// SNORD26 /// SNORD27 /// SNORD28 /// SNORD29 /// SNORD31 / Fold change vs veh, SNHG1 /// SNORD22 /// SNORD25 /// SNORD26 /// SNORD27 /// SNORD28 /// SNORD29 /// SNORD31 / Fold change (Aza/veh), C12orf56 (ProbeSet 11735607_a_at) / Fold change (ACY-1035/veh), C12orf56 (ProbeSet 11735607_a_at) / Fold change (Aza/veh), FGFR1OP (ProbeSet 11751329_s_at) / Fold change (ACY-1035/veh), FGFR1OP (ProbeSet 11751329_s_at) / Fold change (Aza/veh), VPS36 (ProbeSet 11739960_a_at) / Fold change (ACY-1035/veh), VPS36 (ProbeSet 11739960_a_at) / RFU SYPL1 (11715823_x_at) / Fold change /veh SYPL1 (11715823_x_at) / RFU IGFBP7 (11715501_s_at) / Fold change /veh IGFBP7 (11715501_s_at) / RFU REEP3 (11722064_at) / Fold change /veh REEP3 (11722064_at) / RFU IGLL1 (11728026_x_at) / Fold change /veh IGLL1 (11728026_x_at): dose or concentration left out as unconfirmed
Conditions: ProbeSet 11745428_a_at; LIST D

Nc1ccc(-c2cccs2)cc1NC(=O)c1ccc2c(c1)cc(C1CC1)n2CCN1CCOCC1 [ACY-1035]
RFU, DFFB: 104.10 RFU
